Source: ChEMBL document CHEMBL3886310, “Pyrrolidine derivatives, pharmaceutical compositions and uses thereof” (2015)

Molecular target: Acetyl-CoA carboxylase 2 (Homo sapiens, UniProt O00763)
Assay: Spectrophotometric 384 Well Assay: Assay reactions are then carried out in 384-well plates, with hACC2 in an appropriate dilution and at final assay concentrations (f.c.) of 100 mM Tris (pH 7.5), 10 mM trisodium citrate, 25 mM KHCO3, 10 mM MgCl2, 0.5 mg/ml BSA, 3.75 mM reduced L-glutathione, 15 U/ml lactate dehydrogenase, 0.5 mM phosphoenolpyruvate, 15 U/ml pyruvate kinase, compounds at different concentrations at final DMSO concentrations of 1%.The enzymatic reaction is then started by addition of a mixture of NADH, acetyl Coenzyme A (both 200 μM f.c.) and ATP (500 uM f.c.). The decrease of the optical density (slope S) is then determined at 25° C. at a wavelength of 340 nm over 15 minutes in a spectrophotometric reader.

Acetyl-CoA carboxylase 2, sequence (O00763 whole entry): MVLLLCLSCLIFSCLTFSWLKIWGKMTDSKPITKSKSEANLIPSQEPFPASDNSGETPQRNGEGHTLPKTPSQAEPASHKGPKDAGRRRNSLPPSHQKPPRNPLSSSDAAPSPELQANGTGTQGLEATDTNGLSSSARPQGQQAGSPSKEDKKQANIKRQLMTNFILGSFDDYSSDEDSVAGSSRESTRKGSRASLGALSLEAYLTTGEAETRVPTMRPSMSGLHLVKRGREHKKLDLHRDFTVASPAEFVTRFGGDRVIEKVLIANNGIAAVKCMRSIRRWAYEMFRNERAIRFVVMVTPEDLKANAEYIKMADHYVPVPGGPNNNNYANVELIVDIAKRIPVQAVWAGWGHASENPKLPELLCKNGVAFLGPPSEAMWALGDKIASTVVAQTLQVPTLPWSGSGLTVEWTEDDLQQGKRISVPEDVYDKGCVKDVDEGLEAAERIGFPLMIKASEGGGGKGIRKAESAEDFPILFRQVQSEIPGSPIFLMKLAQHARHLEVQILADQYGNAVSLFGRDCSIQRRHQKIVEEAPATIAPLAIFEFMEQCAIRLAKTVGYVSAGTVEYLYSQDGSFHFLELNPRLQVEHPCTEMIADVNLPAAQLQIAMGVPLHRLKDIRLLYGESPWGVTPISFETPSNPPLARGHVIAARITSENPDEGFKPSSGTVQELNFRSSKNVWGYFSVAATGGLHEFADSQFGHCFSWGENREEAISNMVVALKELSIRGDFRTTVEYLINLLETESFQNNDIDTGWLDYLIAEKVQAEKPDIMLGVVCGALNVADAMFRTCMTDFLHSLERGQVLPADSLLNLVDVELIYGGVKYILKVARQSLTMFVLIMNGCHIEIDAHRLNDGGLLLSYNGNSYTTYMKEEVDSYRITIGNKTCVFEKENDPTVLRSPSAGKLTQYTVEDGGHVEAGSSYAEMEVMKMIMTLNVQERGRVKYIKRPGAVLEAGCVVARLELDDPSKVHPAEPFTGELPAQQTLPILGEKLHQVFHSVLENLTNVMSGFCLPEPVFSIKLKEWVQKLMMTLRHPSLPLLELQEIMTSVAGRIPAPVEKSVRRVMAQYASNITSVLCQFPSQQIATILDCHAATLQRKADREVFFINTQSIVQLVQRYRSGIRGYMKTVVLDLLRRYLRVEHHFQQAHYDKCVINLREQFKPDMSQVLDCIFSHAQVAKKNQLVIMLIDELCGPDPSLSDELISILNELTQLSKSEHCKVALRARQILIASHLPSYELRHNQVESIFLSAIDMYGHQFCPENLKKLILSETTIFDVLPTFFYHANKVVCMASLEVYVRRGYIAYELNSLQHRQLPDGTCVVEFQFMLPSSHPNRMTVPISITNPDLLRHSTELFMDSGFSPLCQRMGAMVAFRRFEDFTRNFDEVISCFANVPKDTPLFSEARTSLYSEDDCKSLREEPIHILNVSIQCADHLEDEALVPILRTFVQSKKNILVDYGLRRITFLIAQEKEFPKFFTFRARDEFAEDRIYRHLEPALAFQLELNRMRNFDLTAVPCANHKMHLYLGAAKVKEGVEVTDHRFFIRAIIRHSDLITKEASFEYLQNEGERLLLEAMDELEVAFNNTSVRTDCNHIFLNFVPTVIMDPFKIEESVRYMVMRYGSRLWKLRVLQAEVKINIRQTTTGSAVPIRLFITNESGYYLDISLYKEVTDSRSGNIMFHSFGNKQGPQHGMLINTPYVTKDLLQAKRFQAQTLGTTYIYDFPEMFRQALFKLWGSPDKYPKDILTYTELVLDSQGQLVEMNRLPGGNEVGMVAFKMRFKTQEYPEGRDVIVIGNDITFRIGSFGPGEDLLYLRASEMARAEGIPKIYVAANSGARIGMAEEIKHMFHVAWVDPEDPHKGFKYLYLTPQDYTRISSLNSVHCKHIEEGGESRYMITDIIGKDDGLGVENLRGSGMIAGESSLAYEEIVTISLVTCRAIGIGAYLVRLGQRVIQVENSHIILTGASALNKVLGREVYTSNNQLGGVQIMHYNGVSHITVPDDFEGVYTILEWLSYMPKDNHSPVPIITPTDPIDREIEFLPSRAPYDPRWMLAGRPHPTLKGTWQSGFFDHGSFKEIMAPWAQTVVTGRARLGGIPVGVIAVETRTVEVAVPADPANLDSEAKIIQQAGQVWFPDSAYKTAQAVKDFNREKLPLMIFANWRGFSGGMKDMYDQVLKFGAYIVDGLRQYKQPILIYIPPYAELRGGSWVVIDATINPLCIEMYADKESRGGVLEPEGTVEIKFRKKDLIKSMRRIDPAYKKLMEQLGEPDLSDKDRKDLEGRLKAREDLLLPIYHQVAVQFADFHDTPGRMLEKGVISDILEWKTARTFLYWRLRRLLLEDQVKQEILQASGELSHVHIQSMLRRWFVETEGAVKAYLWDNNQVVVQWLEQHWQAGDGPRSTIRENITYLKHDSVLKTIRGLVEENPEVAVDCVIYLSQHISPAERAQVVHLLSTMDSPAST

Row | IC50 | Structure (SMILES)
1 | 1360 nM | COC(=O)N[C@@H](C)c1ccc(OC2CCN(c3ccc(OC(C)C)cc3)C2)cc1 (some centres not stated)
2 | 16 nM | C[C@H](NC(=O)c1cn[nH]c1)c1ccc(O[C@@H]2CCN(c3ccc(OCC4CC4)cc3)C2)cc1
